The results in this text go back to patent publication US4650788A, “Novel peptides having an immunostimulating action, processes for their preparation and their use” (Hoechst Aktiengesellschaft, priority 1983, dated 1987).

Assay [1] relates to spleen cells of mice (B lymphocytes), in vitro immunization with sheep erythrocytes. In words: plaque-forming cell test (PFC test). The settings on record: Dosage 100 ng/substance/1 ml of cell culture; mouse spleen cell culture, 5 days; untreated control 221 ± 30. It is filed as cell-based. The method, then: […]. The in vitro immunization is effected with 5×10^7 sheep erythrocytes/ml. The test cell cultures are incubated daily with the corresponding dose of the test substance.
After a running time of 5 days, the cells are centrifuged off and washed with medium RPMI 1640 and the direct PFC test is carried out. For this, the cells are mixed with a 10% sheep erythrocyte suspension in an agarose solution and the mixture is poured onto a flat surface. In the layer of gel formed, the stimulated lymphocytes release antibodies during subsequent incubation, and these diffuse into the environment and attach themselves to the sheep erythrocytes therein. After addition of guinea pig complement, the red blood cells lyse. Light-colored round spots which can be seen with the naked eye form in the reddish-brown gel, i.e. the hemolysis areolas of the plaques. An antibody-producing cell is found in the center of such hemolysis areolas. The number of lymphoid cells which form specific immunoglobulins can consequently be equated with the numbers of plaques found.

A further assay relates to lymphocytes (T cells). The experiment in a line: PHA stimulation test (lymphocyte transformation test). It is filed as cell-based. The conditions noted are these: Dosage 100 ng/substance/1 ml of cell culture; 10 μg of PHA/1 ml, 72 hours; untreated control 1.00. The text has this: In the PHA stimulation test (PHA=phytohemagglutinin) or the lymphocyte transformation test, conclusions as to the number of mature, i.e. stimulatable, lymphocytes are drawn not via investigation of the surface antigens but by the function test for ability to be stimulated by the plant lectin PHA. The lymphocytes (T cells) are stimulated to […] transformation by the lectin, in the same way as by bacterial or viral antigens. This leads to proliferation, either directly or by the release of lymphokins. The incorporation of the radiolabeled thymidine within a certain time is then a measure of the number of stimulated cells. Only the mature or immunologically potent T cells are stimulated. The influence of a substance on lymphocyte maturation can therefore be monitored with this test. However, the stimulation must be sub-optimum, since other sub-populations of lymphocytes are also stimulated at higher concentrations and the effect can no longer be observed. The peptides to be investigated have been added to the culture medium in various concentrations. They are present throughout the entire duration of the test (up to 72 hours).

Each structure is given as a SMILES string. Square brackets hold non-standard residues; d marks the D form. Peptide text beside a SMILES is read from it.

Consider `CC(C)[C@H]1NC(=O)[C@H](CC(=O)O)NC(=O)[C@H](CCCCN)NC(=O)[C@H](CCCNC(=N)N)NC(=O)[C@H](Cc2c[nH]c3ccccc23)NC1=O` [cyclo-(Arg--Lys--Asp--D-Val--Trp)] (cyclo(D[dV]WRK)), for which the “PFC/10^6 cells” value in assay [1] is given as 312 ± 58 PFC/10^6 cells.

`CC(C)[C@H]1NC(=O)[C@H](CC(=O)O)NC(=O)[C@H](CCCCN)NC(=O)[C@H](CCCNC(=N)N)NC(=O)[C@H](Cc2ccc(O)cc2)NC1=O` [cyclo-(Arg--Lys--Asp--D-Val--Tyr), cyclo-(Arg-Lys-Asp-D-Val-Tyr).2HOAc] (cyclo(D[dV]YRK)): the PHA stimulation index with lymphocytes (T cells) was 1.69. In assay [1], the “PFC/10^6 cells” value amounted to 401 ± 64 PFC/10^6 cells. The corresponding values for `CC(C)[C@H]1NC(=O)[C@H](CCC(=O)O)NC(=O)[C@H](CCCCN)NC(=O)[C@H](CCCNC(=N)N)NC(=O)[C@H](Cc2c[nH]c3ccccc23)NC1=O` [cyclo-(Arg--Lys--Glu--D-Val--Trp)] (cyclo(E[dV]WRK)) are 1.25 and 369 ± 54 PFC/10^6 cells.

Molecule `CC(C)[C@H]1NC(=O)[C@H](CCC(=O)O)NC(=O)[C@H](CCCCN)NC(=O)[C@H](CCCNC(=N)N)NC(=O)[C@H](Cc2ccc(O)cc2)NC1=O` [cyclo-(Arg--Lys--Glu--D-Val--Tyr), cyclo-(Arg-Lys-Glu-D-Val-Tyr).2 HOAc] (cyclo(E[dV]YRK)) gave a PHA stimulation index with lymphocytes (T cells) of 1.92. Besides, the “PFC/10^6 cells” value in assay [1] was 687 ± 73 PFC/10^6 cells. In the case of `CC(C)[C@@H]1NC(=O)[C@H](CCC(=O)O)NC(=O)[C@H](CCCCN)NC(=O)[C@H](CCCNC(=N)N)NC(=O)[C@@H](Cc2ccccc2)NC1=O` [cyclo-(Arg--Lys--Glu--Val--D-Phe)] (cyclo(EV[dF]RK)), the “PFC/10^6 cells” value in assay [1] was found to be 250 ± 31 PFC/10^6 cells.

As to `CC(C)[C@@H]1NC(=O)[C@H](CC(=O)O)NC(=O)[C@H](CCCNC(=N)N)NC(=O)[C@@H](CCCCN)NC(=O)[C@H](Cc2ccc(O)cc2)NC1=O` [cyclo-(D-Lys--Arg--Asp--Val--Tyr)] (cyclo(DVY[dK]R)), in assay [1], the “PFC/10^6 cells” value is on record as 341 ± 43 PFC/10^6 cells.

The molecule `CC(C)[C@@H]1NC(=O)[C@H](CCC(=O)O)NC(=O)[C@H](CCCNC(=N)N)NC(=O)[C@@H](CCCCN)NC(=O)[C@H](Cc2ccc(O)cc2)NC1=O` [cyclo-(D-Lys--Arg--Glu--Val--Tyr)] (cyclo(EVY[dK]R)) had a PHA stimulation index in the assay with lymphocytes (T cells) of 1.15. In addition, in assay [1], the “PFC/10^6 cells” value was 317 ± 41 PFC/10^6 cells.
